This series is described as follows: activity coefficient (dimensionless); of the first substance listed, at infinite dilution; xn = mol fraction of the nth substance listed. Particulars: 101.33 kPa, Liquid, Chromatography, x1 = 0.

± gives the expanded uncertainty stated by the source.

On to `CCCc1ccccc1` [propylbenzene] + CCCCCCCCCCCC[N+](C)(C)CCOc1ccccc1.N#C[N-]C#N, for which the activity coefficient reads like this: (328.15 K) 1.71 ± 0.11; (338.15 K) 1.77 ± 0.12; (348.15 K) 1.83 ± 0.12; (358.15 K) 1.89 ± 0.13; (368.15 K) 1.96 ± 0.13; (378.15 K) 2.01 ± 0.14.

`CCCc1ccccc1` [propylbenzene] + CCCCCCCCCCCC[N+](C)(C)CCOc1ccccc1.O=S(=O)([N-]S(=O)(=O)C(F)(F)F)C(F)(F)F: the activity coefficient (318.15 K) turned out to be 1.09 ± 0.07; the activity coefficient (328.15 K) came to 1.15 ± 0.07; the activity coefficient (338.15 K) turned out to be 1.2 ± 0.08; the activity coefficient (348.15 K) worked out at 1.26 ± 0.08; the activity coefficient (358.15 K) worked out at 1.32 ± 0.09; the activity coefficient (368.15 K) was found to be 1.37 ± 0.09.

As for `c1ccncc1` [pyridine] + CCCCCCCCCCCC[N+](C)(C)CCOc1ccccc1.N#C[N-]C#N, the activity coefficient runs as follows: (328.15 K) 0.586 ± 0.042; (338.15 K) 0.604 ± 0.042; (348.15 K) 0.622 ± 0.043; (358.15 K) 0.639 ± 0.044; (368.15 K) 0.656 ± 0.045; (378.15 K) 0.673 ± 0.046.

Turning to `c1ccncc1` [pyridine] + CCCCCCCCCCCC[N+](C)(C)CCOc1ccccc1.O=S(=O)([N-]S(=O)(=O)C(F)(F)F)C(F)(F)F, the activity coefficient (318.15 K) stood at 0.278 ± 0.03; the activity coefficient (328.15 K) is 0.296 ± 0.031; the activity coefficient (338.15 K) is 0.313 ± 0.031; the activity coefficient (348.15 K) turned out to be 0.33 ± 0.032; the activity coefficient (358.15 K) amounted to 0.346 ± 0.032; the activity coefficient (368.15 K) came out at 0.363 ± 0.033.

For the compound `C=Cc1ccccc1` [styrene] + CCCCCCCCCCCC[N+](C)(C)CCOc1ccccc1.N#C[N-]C#N, the activity coefficient is, setting by setting: (328.15 K) 0.905 ± 0.057; (338.15 K) 0.94 ± 0.06; (348.15 K) 0.981 ± 0.062; (358.15 K) 1.02 ± 0.06; (368.15 K) 1.06 ± 0.07; (378.15 K) 1.1 ± 0.07.

Take `C=Cc1ccccc1` [styrene] + CCCCCCCCCCCC[N+](C)(C)CCOc1ccccc1.O=S(=O)([N-]S(=O)(=O)C(F)(F)F)C(F)(F)F: the activity coefficient is 0.632 ± 0.044 (318.15 K); 0.672 ± 0.046 (328.15 K); 0.711 ± 0.047 (338.15 K); 0.75 ± 0.049 (348.15 K); 0.788 ± 0.051 (358.15 K); 0.83 ± 0.05 (368.15 K).

Consider `C1CCOC1` [tetrahydrofuran] + CCCCCCCCCCCC[N+](C)(C)CCOc1ccccc1.N#C[N-]C#N, for which the activity coefficient is 0.704 ± 0.047 (328.15 K); 0.726 ± 0.048 (338.15 K); 0.749 ± 0.049 (348.15 K); 0.77 ± 0.05 (358.15 K); 0.791 ± 0.051 (368.15 K); 0.81 ± 0.052 (378.15 K).

For the compound `C1CCOC1` [tetrahydrofuran] + CCCCCCCCCCCC[N+](C)(C)CCOc1ccccc1.O=S(=O)([N-]S(=O)(=O)C(F)(F)F)C(F)(F)F, the activity coefficient (318.15 K) turned out to be 0.364 ± 0.033; the activity coefficient (328.15 K) amounted to 0.39 ± 0.034; the activity coefficient (338.15 K) is 0.418 ± 0.035; the activity coefficient (348.15 K) worked out at 0.446 ± 0.036; the activity coefficient (358.15 K) stood at 0.473 ± 0.037; the activity coefficient (368.15 K) was 0.502 ± 0.038.

With `c1ccsc1` [thiophene] + CCCCCCCCCCCC[N+](C)(C)CCOc1ccccc1.N#C[N-]C#N, the activity coefficient was determined as 0.648 ± 0.044 (328.15 K); 0.674 ± 0.046 (338.15 K); 0.699 ± 0.047 (348.15 K); 0.724 ± 0.048 (358.15 K); 0.749 ± 0.049 (368.15 K); 0.773 ± 0.051 (378.15 K).

Regarding `c1ccsc1` [thiophene] + CCCCCCCCCCCC[N+](C)(C)CCOc1ccccc1.O=S(=O)([N-]S(=O)(=O)C(F)(F)F)C(F)(F)F, the activity coefficient (318.15 K) came out at 0.534 ± 0.039; the activity coefficient (328.15 K) was 0.562 ± 0.04; the activity coefficient (338.15 K) stood at 0.591 ± 0.042; the activity coefficient (348.15 K) was 0.62 ± 0.043; the activity coefficient (358.15 K) came out at 0.649 ± 0.044; the activity coefficient (368.15 K) was determined as 0.68 ± 0.046.

`Cc1ccccc1` [toluene] + CCCCCCCCCCCC[N+](C)(C)CCOc1ccccc1.N#C[N-]C#N: the activity coefficient (328.15 K) came out at 1.05 ± 0.07; the activity coefficient (338.15 K) amounted to 1.1 ± 0.07; the activity coefficient (348.15 K) was 1.15 ± 0.07; the activity coefficient (358.15 K) came to 1.19 ± 0.08; the activity coefficient (368.15 K) was 1.24 ± 0.08; the activity coefficient (378.15 K) was found to be 1.28 ± 0.08.

For `Cc1ccccc1` [toluene] + CCCCCCCCCCCC[N+](C)(C)CCOc1ccccc1.O=S(=O)([N-]S(=O)(=O)C(F)(F)F)C(F)(F)F, the activity coefficient reads like this: (318.15 K) 0.681 ± 0.046; (328.15 K) 0.725 ± 0.048; (338.15 K) 0.766 ± 0.05; (348.15 K) 0.81 ± 0.052; (358.15 K) 0.851 ± 0.055; (368.15 K) 0.893 ± 0.057.

`C=COC(C)=O` [vinyl acetate] + CCCCCCCCCCCC[N+](C)(C)CCOc1ccccc1.N#C[N-]C#N: the activity coefficient came out at 1.24 ± 0.08 (328.15 K); 1.28 ± 0.08 (338.15 K); 1.31 ± 0.09 (348.15 K); 1.35 ± 0.09 (358.15 K); 1.38 ± 0.09 (368.15 K); 1.41 ± 0.09 (378.15 K).

Consider `C=COC(C)=O` [vinyl acetate] + CCCCCCCCCCCC[N+](C)(C)CCOc1ccccc1.O=S(=O)([N-]S(=O)(=O)C(F)(F)F)C(F)(F)F, for which the activity coefficient reads like this: (318.15 K) 0.393 ± 0.034; (328.15 K) 0.414 ± 0.034; (338.15 K) 0.434 ± 0.035; (348.15 K) 0.453 ± 0.036; (358.15 K) 0.473 ± 0.037; (368.15 K) 0.493 ± 0.038.

Take `O` [water] + CCCCCCCCCCCC[N+](C)(C)CCOc1ccccc1.N#C[N-]C#N: the activity coefficient by setting is: (328.15 K) 0.467 ± 0.036; (338.15 K) 0.479 ± 0.037; (348.15 K) 0.489 ± 0.037; (358.15 K) 0.5 ± 0.04; (368.15 K) 0.51 ± 0.038; (378.15 K) 0.52 ± 0.039.

`O` [water] + CCCCCCCCCCCC[N+](C)(C)CCOc1ccccc1.O=S(=O)([N-]S(=O)(=O)C(F)(F)F)C(F)(F)F: the activity coefficient (318.15 K) came to 3.65 ± 0.25; the activity coefficient (328.15 K) was 3.32 ± 0.23; the activity coefficient (338.15 K) stood at 3.04 ± 0.21; the activity coefficient (348.15 K) was determined as 2.8 ± 0.19; the activity coefficient (358.15 K) came out at 2.59 ± 0.18; the activity coefficient (368.15 K) is 2.4 ± 0.16.

The values are drawn from the NIST ThermoML archive (doi:10.1016/j.fluid.2018.09.024).
